Measured values from patent US11590117B2, “Treatment of a hematologic malignancy with 2-(4-chlorophenyl)-n-((2-(2,6-dioxopiperidin-3-yl)-1-oxoisoindolin-5-yl)methyl)-2,2-difluoroacetamide” (priority 2016, dated 2023).
Like-named read-outs stand apart in the source and are kept apart here.

Assays:
[1] = system: OCI-AML3; test: Annexin V/7-AAD flow cytometry apoptosis assay; format: cell-based, human; conditions: OCI-AML3 (Compound 1-insensitive AML line)
Method: Cell Apoptosis Assays: The ability of Compound 1 to induce apoptosis was assessed in selected AML cell lines and healthy PBMCs at the time points and compound concentrations indicated. For Annexin V/7-AAD readout by flow cytometry, AML cell lines were plated into flat bottom 96-well plates (BD Falcon) at a seeding density of 0.1 to 0.3×10^6 cells per mL in 200 μL complete media. Compound 1 was dispensed onto the plates and the cells were incubated for the times indicated. For frozen PBMCs, cells were thawed as previously described and plated at a seeding density of 1×10^6 cells per mL in 200 μL on Corning® BioCoat™ T-Cell Activation Anti-Human CD3 96-well plates (Corning Inc., Corning, N.Y.). Compound 1 was dispensed onto the plates and the cells were incubated for the times indicated. […] One hundred microliters of Annexin V/7-AAD buffer was added per well and the cells incubated for 15 minutes before being analyzed using the Attune Flow Cytometer (Life Technologies, Carlsbad, Calif.). For caspase 3/7 activity, the remaining 100 μL was incubated with CellEvent™ Caspase-3/7 Green ReadyProbes® Reagent (1:1000 dilution; Molecular Probes) for 15 minutes before being analyzed using the Attune Flow Cytometer. […]
Compound 1 Induces Apoptosis in Acute Myeloid Leukemia Cell Lines. […] 0.01 μM and 0.1 μM and apoptosis was assessed over time.

[2] = system: PBMCs; test: CellTiter-Glo (CTG) cell proliferation assay, 72 hours, anti-CD3 stimulated; format: cell-based, human; conditions: for IC50: Homo sapiens, PBMC
Method: Preparation of Solutions of Test Article: Compounds were plated into black 384-well plates (Corning Inc.) to a final DMSO volume of 0.1% assuming a maximal volume of 50 μL. A 10-point dose response starting at 10 μM with a 1:3 dilution was printed in duplicate by acoustic dispense using the EDC ATS-100 platform.
Cell Proliferation Assays: The effect of Compound 1 on the proliferation/viability of the hematological cell lines (Table 1 Table, Table 2 and Table 3), THLE-2, or PBMCs was assessed after 72 hours incubation using CTG (Promega), according to manufacturer's instructions. Hematological cell lines were dispensed into compound plates by a Multidrop™ Combi Reagent Dispenser (Thermo Scientific, Waltham, Mass.) at a concentration of 0.1 to 0.3×10^6 cells per mL in a 50 μL total volume. THLE-2 cells were seeded out at 1000 cells per well in 50 μL volume and incubated for 72 hours. At 72 hours, 25 μL per well of CTG was dispensed by a Multidrop™ Combi Reagent Dispenser and adenosine triphosphate (ATP) release by viable cells was measured as relative luminescence units after 30 minutes using the Envision platform.
For frozen PBMCs, cells were thawed at 37° C. for 2 minutes in RPMI with 10% FBS and cell counts and viability were measured on the ViCell as previously described. Peripheral blood mononuclear cells were washed and diluted to 1×10^6 cells per mL and dispensed by a Multidrop™ Combi Reagent Dispenser in a volume of 25 μL/well into the compound plates and incubated for 2 hours. After 2 hours, 25 μL of anti-CD3 antibody-bound beads (1 cell. 2 anti-human CD3 antibody-coated M-450 beads) were dispensed per well and incubated for a further 72 hours. After 72 hours, 15 μL of supernatants were collected for the analysis of interleukin (IL)-2 release using the Human IL-2 384-well Tissue Culture Kit (Meso Scale Diagnostics), according to the manufacturer's instructions, and the remaining cell suspension was processed with CTG.
In order to calculate the therapeutic window for Compound 1, the compound was counter-screened against the immortalized (but non-tumorigenic) human hepatocyte-derived cell line THLE-2 (Pfeifer, et al, Proc Natl Acad Sci USA 1993 90(11):5123-5127) and against primary human PBMCs. […] The Compound 1 therapeutic window for the 10 sensitive AML cell lines as compared to THLE-2 cells ranged from 4.1 (KG-1a) to 57 (HNT-34) (method 1) or from 5.7 (KG-1a) to 79.5 (HNT-34) (method 2); the Compound 1 therapeutic window as compared to PBMCs ranged from 2.6 (KG-1a) to 36 (HNT-34)), or from 1.5 (KG-1a) to 21 (HNT-34) (Table 6).
Cultures of 11 different AML cell lines were incubated 72 hours with Compound 1 at concentrations of 0.5 nM to 10 μM. Proliferation was assessed using the CellTitre-Glo® assay. Results for cultures incubated with Compound 1 were normalized to results for control cultures for each cell line. Inhibition of cell growth was also determined in THLE-2 cells at Compound 1 concentrations of 0.1 nM to 100 μM and in PBMCs at Compound 1 concentrations of 0.5 nM to […]. The Compound 1 therapeutic window was calculated using area under the curve (AUC; Activity Area [Barretina et al, Nature (2012) 483603-607] measurements (in arbitrary units) as determined using GraphPad Prism software for plots of cell proliferation vs concentration and dividing the AUC for the immortalized (but nontumorigenic) human THLE-2 hepatocyte cell line or PBMCs by the AUC for the AML cell line.
The effects of Compound 1 in healthy PBMCs were also assessed. Compound 1 was added to PBMC s from one donor at time zero and assessed at 72 hours. This was compared to PBMCs that were pre-activated and proliferating on anti-CD3 antibody-coated plates for 72 hours before Compound 1 was added and the cells were incubated for an additional 72 hours. HNT-34 cells were used as a sensitive positive control cell line. […]

In the case of `O=C1CCC(N2Cc3cc(CNC(=O)C(F)(F)c4ccc(Cl)cc4)ccc3C2=O)C(=O)N1` (stereo not shown) [Compound 1, 2-(4-chlorophenyl)-N-((2-(2,6-dioxopiperidin-3-yl)-1-oxoisoindolin-5-yl)methyl)-2,2-difluoroacetamide], the induction of apoptosis [1] is reported as “did not induce apoptosis”, the IC50 ([2]; 72 h, PBMCs not pre-activated, 72 hours, read-out: CTG IC50) is reported as 100 nM and the IC50 ([2]; 72 h, pre-activated PBMCs (72 hours on anti-CD3 plates before compound), 72 hours, CTG and viable cell count, read-out: antiproliferative IC50) is reported as greater than 10000 nM. For the same compound, the IC50 ([2]; 72 h, primary human PBMCs, 72 hours, read-out: antiproliferative IC50) was 120 nM, the IC50 ([2]; pre-activated PBMCs, CTG and viable cell count, read-out: antiproliferative IC50) was greater than 10000 nM and the “AUC Method 1” value ([2]; PBMCs normal cells) was 251.1 arbitrary units. The “AUC Method 2” value ([2]; PBMCs normal cells) was 145.1 arbitrary units.
